How the values were obtained:
[1] = excess molar enthalpy (molar enthalpy of mixing); xn = mol fraction of the nth substance listed; details: 101 kPa, Liquid, Flow calorimetry
[2] = 298.15 K; 101.33 kPa; Liquid; Vibrating tube method

C=CC(C)(O)CCC=C(C)C (stereo not given) [3,7-dimethyl-1,6-octadien-3-ol] + CCO
excess molar enthalpy [kcal/mol], [1]
Details	283.15 K	298.15 K	313.15 K	328.15 K
x1 = 0.047	-0.0366	-0.0366	-0.0418	-0.0413
x1 = 0.094	-0.0741	-0.0805	-0.0839	-0.0798
x1 = 0.19	-0.143	-0.152	-0.157	-0.143
x1 = 0.29	-0.185	-0.198	-0.202	-0.18
x1 = 0.387	-0.191	-0.207	-0.212	-0.189
x1 = 0.481	-0.179	-0.19	-0.199	-0.177
x1 = 0.585	-0.152	-0.165	-0.17	-0.152
x1 = 0.695	-0.11	-0.121	-0.128	-0.114
x1 = 0.78	-0.0743	-0.0923	-0.101	-0.0875
x1 = 0.895	-0.0335	-0.0423	-0.0473	-0.0411
x1 = 0.946	-0.0165	-0.021	-0.0249	-0.0232

C=CC(C)(O)CCC=C(C)C (stereo not given) [3,7-dimethyl-1,6-octadien-3-ol]
Details	mass density [kg/m3]
[2]	857

C=CC(C)(O)CCC=C(C)C (stereo not given) [3,7-dimethyl-1,6-octadien-3-ol] + CCCCO
excess molar enthalpy [kcal/mol], [1]
Details	283.15 K	298.15 K	313.15 K	328.15 K
x1 = 0.042	-0.00311	-0.00717	-0.00717	-0.00526
x1 = 0.085	-0.00502	-0.0143	-0.0158	-0.022
x1 = 0.174	-0.00526	-0.0227	-0.0349	-0.0526
x1 = 0.265	-0.00287	-0.0241	-0.0466	-0.0724
x1 = 0.359	-0.000239	-0.0217	-0.0514	-0.082
x1 = 0.457	0.00215	-0.0182	-0.0509	-0.0837
x1 = 0.559	0.00574	-0.0136	-0.0447	-0.0779
x1 = 0.661	0.00956	-0.00669	-0.0351	-0.0624
x1 = 0.771	0.0136	0.000717	-0.022	-0.044
x1 = 0.884	0.0141	0.00621	-0.00741	-0.021
x1 = 0.943	0.0105	0.00526	-0.00191	-0.00884

CC(C)O [propan-2-ol]
Details	mass density [kg/m3]
[2]	781.23
